The source of these data is patent US8354441B2, “Oxazoline derivatives” (Hoffmann-La Roche Inc., priority 2009, dated 2013).

One experiment addresses T1, mouse TAAR1 (Mus musculus, UniProt Q923Y8).
T1 construct: expressed in transfected cells; host or cells: HEK293 (ATCC # CRL-1573), stably transfected with pIRESneo2 expression plasmid
The experiment is described as follows: TAAR1 radioligand binding with [3H]-rac-2-(1,2,3,4-tetrahydro-1-naphthyl)-2-imidazoline, membranes of stably transfected HEK293 cells. To be noted: first value of the cell, read-out: Ki (μM) mouse/rat: mouse. The method, boiled down:
(§1)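 Competition binding: competitors spanning 10 pM–30 μM displace 60 nM [3H]-rac-2-(1,2,3,4-tetrahydro-1-naphthyl)-2-imidazoline from stably transfected HEK293 membranes (mouse or rat receptor), 30 min, 4 °C, pH 7.0 buffer with Mg2+/Ca2+. Bound label counted after GF/C filtration; 10 μM unlabelled ligand defines non-specific binding.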

In another experiment the target is T2, rat TAAR1 (Rattus norvegicus, UniProt Q923Y9).
T2 construct: expressed in transfected cells; host or cells: HEK293 (ATCC # CRL-1573), stably transfected with pIRESneo2 expression plasmid
T2 sequence (Q923Y9 whole entry): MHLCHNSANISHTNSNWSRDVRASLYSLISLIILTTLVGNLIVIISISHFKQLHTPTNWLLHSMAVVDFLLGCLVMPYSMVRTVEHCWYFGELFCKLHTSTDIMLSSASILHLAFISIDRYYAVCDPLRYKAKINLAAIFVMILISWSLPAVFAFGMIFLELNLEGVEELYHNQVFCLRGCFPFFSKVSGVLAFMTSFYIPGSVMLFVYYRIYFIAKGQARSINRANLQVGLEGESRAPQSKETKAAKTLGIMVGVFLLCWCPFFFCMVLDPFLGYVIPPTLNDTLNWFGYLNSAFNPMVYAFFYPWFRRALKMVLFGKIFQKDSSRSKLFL
The description is as above. To be noted: second value of the cell, read-out: Ki (μM) mouse/rat: rat. Put shortly:
as §1

T1 sequence (Q923Y8 whole entry): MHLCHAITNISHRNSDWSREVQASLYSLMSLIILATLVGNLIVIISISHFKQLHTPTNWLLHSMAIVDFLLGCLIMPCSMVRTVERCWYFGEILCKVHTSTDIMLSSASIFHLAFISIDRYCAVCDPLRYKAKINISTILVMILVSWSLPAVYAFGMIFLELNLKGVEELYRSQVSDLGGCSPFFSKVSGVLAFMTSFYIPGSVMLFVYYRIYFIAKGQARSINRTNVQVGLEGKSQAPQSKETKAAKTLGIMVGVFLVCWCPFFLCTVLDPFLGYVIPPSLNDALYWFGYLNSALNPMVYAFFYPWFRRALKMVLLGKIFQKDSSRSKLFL

Regarding `Cn1cc(Cl)c(C(=O)Nc2ccc(CC[C@H]3COC(N)=N3)cc2)n1` [Example 194, (S)-N-(4-(2-(2-Amino-4,5-dihydrooxazol-4-yl)ethyl)phenyl)-4-chloro-1-methyl-1H-pyrazole-3-carboxamide], the Ki on mouse TAAR1 is 0.0091 µM; on rat TAAR1 it was 0.0035 µM.
For the compound `COc1cc(C(=O)Nc2ccc(CC[C@H]3COC(N)=N3)cc2)nc(OC)n1` [Example 190, (S)-N-(4-(2-(2-Amino-4,5-dihydrooxazol-4-yl)ethyl)phenyl)-2,6-dimethoxypyrimidine-4-carboxamide], the Ki was 0.0041 µM at mouse TAAR1 and 0.004 µM at rat TAAR1.
Turning to `NC1=N[C@@H](CCc2ccc(NC(=O)c3cccc(Cl)c3)cc2)CO1` [Example 18, N-{4-[2-((S)-2-Amino-4,5-dihydro-oxazol-4-yl)-ethyl]-phenyl}-3-chloro-benzamide], the Ki at mouse TAAR1 and on rat TAAR1 was 0.0002 µM throughout.
For `NC1=N[C@@H](CCc2ccc(NC(=O)Nc3ccc(Cl)nc3)cc2)CO1` [Example 38, 1-{4-[2-((S)-2-Amino-4,5-dihydro-oxazol-4-yl)-ethyl]-phenyl}-3-(6-chloro-pyridin-3-yl)-urea], the results for the Ki on mouse TAAR1 and at rat TAAR1 were 0.0017 µM and 0.0004 µM, respectively.
`NC1=N[C@@H](CCc2ccc(NC(=O)C3CCC(F)(F)CC3)cc2)CO1` [Example 40, 4,4-Difluoro-cyclohexanecarboxylic acid {4-[2-((S)-2-amino-4,5-dihydro-oxazol-4-yl)-ethyl]-phenyl}-amide]: the Ki is 0.0036 µM at mouse TAAR1 and 0.0187 µM at rat TAAR1.
Taken in the same sequence, the figures for `NC1=N[C@@H](CCc2ccc(NC(=O)CCC3CC3)cc2)CO1` [Example 170, (S)-N-(4-(2-(2-Amino-4,5-dihydrooxazol-4-yl)ethyl)phenyl)-3-cyclopropylpropanamide] were 0.0074 µM and 0.0018 µM.
Consider `NC1=N[C@@H](CCc2ccc(NC(=O)c3cnc(Cl)cn3)cc2)CO1` [Example 126, (S)-N-(4-(2-(2-Amino-4,5-dihydrooxazol-4-yl)ethyl)phenyl)-5-chloropyrazine-2-carboxamide], for which the Ki was 0.0007 µM at mouse TAAR1 and 0.002 µM on rat TAAR1.
Turning to `NC1=N[C@@H](CCc2ccc(NC(=O)c3cc(F)cnc3F)cc2)CO1` [Example 107, N-{4-[2-((S)-2-Amino-4,5-dihydro-oxazol-4-yl)-ethyl]-phenyl}-2,5-difluoro-nicotinamide], the Ki is 0.0014 µM at mouse TAAR1 and 0.0012 µM at rat TAAR1.
Taken in the same sequence, the figures for `COc1ccc(C(=O)Nc2ccc(CC[C@H]3COC(N)=N3)cc2)cc1` [Example 71, N-{4-[2-((S)-2-Amino-4,5-dihydro-oxazol-4-yl)-ethyl]-phenyl}-4-methoxy-benzamide] were 0.0009 µM and 0.0005 µM.
For the compound `NC1=N[C@@H](CCc2ccc(C(=O)Nc3ccc(Cl)cc3)cc2)CO1` [Example 48, 4-[2-((S)-2-Amino-4,5-dihydro-oxazol-4-yl)-ethyl]-N-(4-chloro-phenyl)-benzamide], the Ki was 0.001 µM on mouse TAAR1 and 0.0003 µM on rat TAAR1.
With `COc1ccc(C(=O)Nc2ccc(CC[C@H]3COC(N)=N3)cc2)nc1` [Example 117, (S)-N-(4-(2-(2-Amino-4,5-dihydrooxazol-4-yl)ethyl)phenyl)-5-methoxypicolinamide], the Ki on mouse TAAR1 was 0.002 µM; at rat TAAR1, 0.0008 µM.
As for `NC1=N[C@@H](CCc2ccc(NC(=O)c3cnc(Cl)c(Cl)c3)cc2)CO1` [Example 109, N-{4-[2-((S)-2-Amino-4,5-dihydro-oxazol-4-yl)-ethyl]-phenyl}-5,6-dichloro-nicotinamide], the Ki at mouse TAAR1 was 0.0006 µM; on rat TAAR1 it was 0.0016 µM.
Taken in the same sequence, the figures for `NC1=N[C@@H](CCc2ccc(NC(=O)c3ncoc3C3CC3)cc2)CO1` [Example 214, (S)-N-(4-(2-(2-Amino-4,5-dihydrooxazol-4-yl)ethyl)phenyl)-5-cyclopropyloxazole-4-carboxamide] were 0.0011 µM and 0.0028 µM.
Take `CCOc1ccc(C(=O)Nc2ccc(CC[C@H]3COC(N)=N3)cc2)cc1` [Example 60, N-{4-[2-((S)-2-Amino-4,5-dihydro-oxazol-4-yl)-ethyl]-phenyl}-4-ethoxy-benzamide]: the results for the Ki at mouse TAAR1 and on rat TAAR1 were 0.001 µM and 0.0006 µM, respectively.
Taken in the same sequence, the figures for `NC1=N[C@@H](CCc2ccc(NC(=O)Nc3ccc(Cl)cc3)cc2)CO1` [Example 3, 1-{4-[2-((S)-2-Amino-4,5-dihydro-oxazol-4-yl)-ethyl]-phenyl}-3-(4-chloro-phenyl)-urea] were 0.0002 µM and 0.0003 µM.
For `CCCc1ccc(C(=O)Nc2ccc(CC[C@H]3COC(N)=N3)cc2)cc1` [Example 61, N-{4-[2-((S)-2-Amino-4,5-dihydro-oxazol-4-yl)-ethyl]-phenyl}-4-propyl-benzamide], the Ki at mouse TAAR1 worked out at 0.0002 µM; at rat TAAR1 it was 0.0007 µM.
Consider `NC1=N[C@@H](CCc2ccc(NC(=O)c3ccc(F)nc3)cc2)CO1` [Example 121, (S)-N-(4-(2-(2-Amino-4,5-dihydrooxazol-4-yl)ethyl)phenyl)-6-fluoronicotinamide], for which the Ki came out at 0.0032 µM at mouse TAAR1 and 0.0046 µM at rat TAAR1.
On to `NC1=N[C@@H](CCc2ccc(NC(=O)Oc3ccc(F)cc3)cc2)CO1` [Example 148, {4-[2-((S)-2-Amino-4,5-dihydro-oxazol-4-yl)-ethyl]-phenyl}-carbamic acid 4-fluoro-phenyl ester], for which the results for the Ki on mouse TAAR1 and on rat TAAR1 were 0.0005 µM and 0.0006 µM, respectively.
With `Cc1cc(C(=O)Nc2ccc(CC[C@H]3COC(N)=N3)cc2)ccn1` [Example 172, (S)-N-(4-(2-(2-Amino-4,5-dihydrooxazol-4-yl)ethyl)phenyl)-2-methylisonicotinamide], the Ki on mouse TAAR1 stood at 0.0084 µM; at rat TAAR1, 0.0019 µM.
Consider `NC1=N[C@@H](CCc2ccc(C(=O)Nc3ccc(Cl)cn3)cc2)CO1` [Example 131, (S)-4-(2-(2-Amino-4,5-dihydrooxazol-4-yl)ethyl)-N-(5-chloropyridin-2-yl)benzamide], for which the Ki at mouse TAAR1 is 0.004 µM; at rat TAAR1, 0.0008 µM.
As for `COc1ncccc1C(=O)Nc1ccc(CC[C@H]2COC(N)=N2)cc1` [Example 115, N-{4-[2-((S)-2-Amino-4,5-dihydro-oxazol-4-yl)-ethyl]-phenyl}-2-methoxy-nicotinamide], the Ki turned out to be 0.0029 µM at mouse TAAR1 and 0.0024 µM at rat TAAR1.
On to `N#Cc1ccc(C(=O)Nc2ccc(CC[C@H]3COC(N)=N3)cc2)cn1` [Example 111, N-{4-[2-((S)-2-Amino-4,5-dihydro-oxazol-4-yl)-ethyl]-phenyl}-6-cyano-nicotinamide], for which the Ki at mouse TAAR1 stood at 0.004 µM; on rat TAAR1, 0.0057 µM.
Take `NC1=N[C@@H](CCc2ccc(NC(=O)c3ccc(F)cn3)cc2)CO1` [Example 96, (S)-N-(4-(2-(2-amino-4,5-dihydrooxazol-4-yl)ethyl)phenyl)-5-fluoropicolinamide]: the results for the Ki at mouse TAAR1 and at rat TAAR1 were 0.001 µM and 0.0006 µM, respectively.
Take `N#Cc1ccc(NC(=O)c2ccc(CC[C@H]3COC(N)=N3)cc2)cc1` [Example 142, (S)-4-(2-(2-Amino-4,5-dihydrooxazol-4-yl)ethyl)-N-(4-cyanophenyl)benzamide]: the Ki on mouse TAAR1 was found to be 0.0044 µM; at rat TAAR1, 0.0011 µM.
As for `COCc1ccc(C(=O)Nc2ccc(CC[C@H]3COC(N)=N3)cc2)cc1` [Example 63, N-{4-[2-((S)-2-Amino-4,5-dihydro-oxazol-4-yl)-ethyl]-phenyl}-4-methoxymethyl-benzamide], the Ki was determined as 0.0026 µM on mouse TAAR1 and 0.0013 µM at rat TAAR1.
As for `C#Cc1ccc(NC(=O)c2ccc(CC[C@H]3COC(N)=N3)cc2)cc1` [Example 145, (S)-4-(2-(2-amino-4,5-dihydrooxazol-4-yl)ethyl)-N-(4-ethynylphenyl)benzamide], the figures for the Ki at mouse TAAR1 and at rat TAAR1 were 0.0018 µM and 0.0001 µM, respectively.
Regarding `NC1=N[C@@H](CCc2ccc(NC(=O)Oc3cccc(C(F)(F)F)c3)cc2)CO1` [Example 149, {4-[2-((S)-2-Amino-4,5-dihydro-oxazol-4-yl)-ethyl]-phenyl}-carbamic acid 3-trifluoromethyl-phenyl ester], the Ki on mouse TAAR1 was found to be 0.0097 µM; at rat TAAR1, 0.0092 µM.
On to `NC1=N[C@@H](CCc2ccc(NC(=O)C3CCC(C(F)(F)F)CC3)cc2)CO1` (stereo partly drawn) [Example 79, 4-Trifluoromethyl-cyclohexanecarboxylic acid {4-[2-((S)-2-amino-4,5-dihydro-oxazol-4-yl)-ethyl]-phenyl}-amide], for which the Ki at mouse TAAR1 stood at 0.0057 µM; at rat TAAR1 it was 0.0051 µM.
On to `NC1=N[C@@H](CCc2ccc(NC(=O)c3ncc(Cl)cn3)cc2)CO1` [Example 34, 5-Chloro-pyrimidine-2-carboxylic acid {4-[2-((S)-2-amino-4,5-dihydro-oxazol-4-yl)-ethyl]-phenyl}-amide], for which the Ki came to 0.0067 µM on mouse TAAR1 and 0.0035 µM on rat TAAR1.
In the case of `NC1=N[C@@H](CCc2ccc(NC(=O)C3CCCC3)cc2)CO1` [Example 43, Cyclopentanecarboxylic acid {4-[2-((S)-2-amino-4,5-dihydro-oxazol-4-yl)-ethyl]-phenyl}-amide], the Ki is 0.0029 µM at mouse TAAR1 and 0.002 µM on rat TAAR1.
Take `COc1cnc(C(=O)Nc2ccc(CC[C@H]3COC(N)=N3)cc2)cn1` [Example 127, (S)-N-(4-(2-(2-Amino-4,5-dihydrooxazol-4-yl)ethyl)phenyl)-5-methoxypyrazine-2-carboxamide]: the Ki at mouse TAAR1 amounted to 0.0063 µM; at rat TAAR1, 0.0022 µM.
For `NC1=N[C@@H](CCc2ccc(NC(=O)c3cnc(N4CCC(F)(F)CC4)cn3)cc2)CO1` [Example 164], the Ki at mouse TAAR1 was determined as 0.0018 µM; at rat TAAR1, 0.0027 µM.
`CC(C)c1cc(C(=O)Nc2ccc(CC[C@H]3COC(N)=N3)cc2)ccn1` [Example 198, (S)-N-(4-(2-(2-Amino-4,5-dihydrooxazol-4-yl)ethyl)phenyl)-2-isopropylisonicotinamide]: the values for the Ki on mouse TAAR1 and at rat TAAR1 were 0.0036 µM and 0.0029 µM, respectively.
